According to patent US20070134744A1, “Epothilone resistant cell lines” (priority 2000, published 2007):
Where a name gives a salt, the structure may show the parent alone. Read-outs that look alike come from different tables or passages of the source.

What was measured:
[1] = system: KB-8511 cells; type: cell-based, human; details: for RF (resistance factor: IC50 resistant cell line / IC50 parental KB-31): KB-8511 (Colch selected), 72 hrs, average of three experiments; for resistance profile in words: KB-8511 vs parental KB-31
Description: (§1) Data in Table 4 are gathered according to the following methods: Cells (1×10^3) are seeded in 96-well plates and allowed to adhere for 24 hrs. Compounds are then added as two-fold serial dilutions and incubation continued for an additional 72 hrs. Cell numbers at the beginning and at the end of the experiment are estimated by methylene blue staining of cellular protein mass according to conventional methods. The net mass increase of vehicle-treated cells is set as 100% growth. The IC50 is determined as the drug concentration that leads to half-maximal growth inhibition compared to the control. The resistance factor (RF) for a particular drug is calculated by dividing the IC50 determined on the resistant cell line by that determined on the parental KB-31 cells. Data are presented as average±standard deviation (SD) of three separate experiments, except na=not applicable (n<3). Colchicine-selected KB-8511 cells overexpressing P-glycoprotein served as a reference for the classical multi-drug-resistant phenotype.

[2] = system: 297/C5/0 cells; type: cell-based, human; details: for RF (resistance factor: IC50 resistant cell line / IC50 parental KB-31): 297/C5/0 (EpoA selected), 72 hrs, average of three experiments; for resistance profile in words: 297/C5/0 vs parental KB-31
Description: (§2) Anti-proliferative assays are performed basically as described (Meyer et al., Int. J. Cancer 43:851 (1989)). Briefly, cells are seeded at 1.5×10^3 cells/well into 96-well microtiter plates and allowed to adhere by incubation overnight. Compounds are added in serial dilutions on day 1. The plates are then incubated for an additional 3 days, after which the cells are fixed with 3.3% v/v glutaraldehyde, washed with water and stained with 0.05% w/v methylene blue according to conventional methods. After washing, the dye is eluted with 3% HCl and the optical density measured at 665 nm with a SpectraMax Plus (Molecular Devices, Sunnyvale, Calif.) according to manufacturers instructions. IC50 values are determined by mathematical curve-fitting using the SoftPro2.6.1 program (Molecular Devices, Sunnyvale, Calif.) using the formula (OD treated−OD start)/(OD control−OD start)×100. […] IC50 determinations with the cell line 298/D4/40 are performed in the presence of 40 nM epothilone A.
as §1

[3] = system: 298/D4/40 cells; type: cell-based, human; details: for RF (resistance factor: IC50 resistant cell line / IC50 parental KB-31): 298/D4/40 (EpoA selected), 72 hrs, in the presence of 40 nM epothilone A; for resistance profile in words: 298/D4/40 vs parental KB-31
Description: as §2, §1

[4] = system: 315/sc5.9 cells; type: cell-based, human; details: for RF (resistance factor: IC50 resistant cell line / IC50 parental KB-31): 315/sc5.9 (EpoB selected), 72 hrs, average of three experiments; for resistance profile in words: 315/sc5.9 vs parental KB-31
Description: as §2, §1

[5] = system: EA40 cells; assay: MTS growth inhibition assay; type: cell-based; details: for IC50: EA40 cells, P-gp substrates, Table 2; for resistance profile in words: EA40 vs MDA-MB-435 / EA150
Description: Growth inhibition may be analyzed using conventional methods, for example a MTS assay (PROMEGA, Wis.) may be used. In this assay approximately 4000 cells per well are seeded in 96 well plates in MEM supplemented with 10% fetal calf serum and incubated at 37° C. in 5.0% CO2. After 24 hours, dilutions of drug (concentration range used is between 1 nM and 1000 nM) are added and cells are allowed to incubate with drug for an additional 72 hours. The MTS reagent mixed with PMS (MTS:PMS 20:1 according to manufacturer's instructions) is then added and absorbance quantitated using a Thermomax microplate reader system according to conventional methods (Molecular Devices, Sunnyvale, Calif.). […] Six assays per drug per plate are performed. […]
(§3) As such, epothilone resistant cells would have some degree of cross-resistance to other P-gp substrates that could be reversed by P-gp inhibitors. To investigate this possibility, the cytotoxicity of the P-gp substrates, vincristine, doxorubicine and vinblastine is determined against epothilone A resistant cells using the MTS assay. […] When EA20 and resistant MDA/T0.3 cells are incubated with TAXOL® or epothilone A in the presence of [3′-Desoxy-3′-oxo-MeBmt]^1-[Val]^2-Ciclosporin (PSC-833; a P-gp inhibitor which is disclosed in U.S. Pat. No. 5,525,590), the resistance of MDA/T0.3 cells to TAXOL® is reversed but no effect on the resistance of EA20 to epothilone A is observed.

[6] = system: MDA-MB-435 cells; assay: MTS growth inhibition assay; type: cell-based; details: Homo sapiens, P-gp substrates, Table 2
Description: Growth inhibition may be analyzed using conventional methods, for example a MTS assay (PROMEGA, Wis.) may be used. In this assay approximately 4000 cells per well are seeded in 96 well plates in MEM supplemented with 10% fetal calf serum and incubated at 37° C. in 5.0% CO2. After 24 hours, dilutions of drug (concentration range used is between 1 nM and 1000 nM) are added and cells are allowed to incubate with drug for an additional 72 hours. The MTS reagent mixed with PMS (MTS:PMS 20:1 according to manufacturer's instructions) is then added and absorbance quantitated using a Thermomax microplate reader system according to conventional methods (Molecular Devices, Sunnyvale, Calif.). […] Six assays per drug per plate are performed.
Thus, at least two potential mechanisms of epothilone A resistance may exist—a lower resistance mechanism that is cross-resistant to TAXOL® and a higher, epothilone A specific resistance mechanism.

[7] = system: MDA/T0.3 cells; assay: MTS growth inhibition assay; type: cell-based
Description: Growth inhibition may be analyzed using conventional methods, for example a MTS assay (PROMEGA, Wis.) may be used. In this assay approximately 4000 cells per well are seeded in 96 well plates in MEM supplemented with 10% fetal calf serum and incubated at 37° C. in 5.0% CO2. […] The MTS reagent mixed with PMS (MTS:PMS 20:1 according to manufacturer's instructions) is then added and absorbance quantitated using a Thermomax microplate reader system according to conventional methods (Molecular Devices, Sunnyvale, Calif.). […] Six assays per drug per plate are performed.
as §3
MDA/T0.3 is a clonal subline of MDA-MB-435 cells selected by increasing exposure of MDA-MB-435 cells to TAXOL®. MDA/T0.3 cells express high levels of P-glycoprotein and are resistant to a variety of chemically and functionally unrelated compounds. MDA/T0.3 cells could be sensitized to a variety of cytotoxic agents by treatment with the P-glycoprotein reversing agent PSC-833.

[8] = MDA/T0.3 cells, P-gp substrates, Table 2, read-out: IC50

| IC50 [6] | SMILES | RF (resistance factor: IC50 resistant cell line / IC50 parental KB-31) [1] | RF (resistance factor: IC50 resistant cell line / IC50 parental KB-31) [2] | resistance profile in words [2] | RF (resistance factor: IC50 resistant cell line / IC50 parental KB-31) [3] | resistance profile in words [3] | RF (resistance factor: IC50 resistant cell line / IC50 parental KB-31) [4] | resistance profile in words [4] | IC50 [5] | IC50 [7] | resistance profile in words [1] | resistance profile in words [5] | IC50 [7, 8] |
| --- | --- | --- | --- | --- | --- | --- | --- | --- | --- | --- | --- | --- | --- |
|  | O=c1[nH]cc(F)c(=O)[nH]1 [5-FU, 5-Fluorouracil] | 1.1 | 1.2 | Neither cell line is cross-resistant | 0.9 | Neither cell line is cross-resistant | 0.4 | slightly hypersensitive |  |  |  |  |  |
|  | CN[C@H]1CCc2cc(OC)c(OC)c(OC)c2-c2ccc(OC)c(=O)cc21 [Demecolcine, demecolcine] |  |  | hypersensitive |  | hypersensitive |  | slightly hypersensitive |  |  | resistant |  |  |
|  | C=C/C=C\[C@H](C)[C@H](OC(N)=O)[C@@H](C)[C@H](O)[C@@H](C)C/C(C)=C\[C@H](C)[C@@H](O)[C@@H](C)/C=C\[C@@H](O)C[C@@H]1OC(=O)[C@H](C)[C@@H](O)[C@H]1C [Discodermolide] | 2.8 | 1.3 | not cross-resistant | 0.5 | not cross-resistant | 1.2 |  |  |  |  |  |  |
| > 500 nM | COc1cccc2c1C(=O)c1c(O)c3c(c(O)c1C2=O)C[C@@](O)(C(=O)CO)C[C@@H]3O[C@H]1C[C@H](N)[C@H](O)[C@H](C)O1 [Doxorubicin, doxorubicin] | 48.8 | 1.6 | Neither cell line is cross-resistant | 1.2 | Neither cell line is cross-resistant | 1.8 | marginal cross-resistance | 365 ± 200 nM |  | resistant | equally sensitive | > 5000 nM |
|  | [NH2][Pt]1([NH2])[O]C(=O)C2(CCC2)C(=O)[O]1 [Paraplatine, Paraplatin] | 0.8 | 1.2 | Neither cell line is cross-resistant | 3.8 | very minor increase in the resistance | 0.7 |  |  |  |  |  |  |
| < 1 nM | CC[C@]1(O)C[C@@H]2CN(CCc3c([nH]c4ccccc34)[C@@](C(=O)OC)(c3cc4c(cc3OC)N(C)[C@H]3[C@@](O)(C(=O)OC)[C@H](OC(C)=O)[C@]5(CC)C=CCN6CC[C@]43[C@@H]65)C2)C1 [Vinblastine, Vinblastine sulfate] | 162.4 | 0.7 | hypersensitive | 0.2 | hypersensitive | 0.6 |  | < 1 nM |  | resistant | equally sensitive | 14 ± 2.7 nM |
| 3 ± 2 nM | CC[C@]1(O)C[C@H]2CN(CCc3c([nH]c4ccccc34)[C@@](C(=O)OC)(c3cc4c(cc3OC)N(C=O)[C@H]3[C@@](O)(C(=O)OC)[C@H](OC(C)=O)[C@]5(CC)C=CCN6CC[C@]43[C@@H]65)C2)C1 [Vincristine, vincristine] |  |  |  |  |  |  | slightly hypersensitive | 4 ± 1.7 nM |  |  | equally sensitive |  |

| SMILES | IC50 [6] | RF (resistance factor: IC50 resistant cell line / IC50 parental KB-31) [1] | RF (resistance factor: IC50 resistant cell line / IC50 parental KB-31) [2] | resistance profile in words [2] | RF (resistance factor: IC50 resistant cell line / IC50 parental KB-31) [3] | resistance profile in words [3] | RF (resistance factor: IC50 resistant cell line / IC50 parental KB-31) [4] | resistance profile in words [4] | IC50 [5] | IC50 [7] | resistance profile in words [1] | resistance profile in words [5] | IC50 [7, 8] |
| --- | --- | --- | --- | --- | --- | --- | --- | --- | --- | --- | --- | --- | --- |
| COc1cccc2c1C(=O)c1c(O)c3c(c(O)c1C2=O)C[C@@](O)(C(C)=O)C[C@@H]3O[C@H]1C[C@H](N)[C@H](O)[C@H](C)O1 [Daunorubicin] | 382 ± 101 nM |  |  |  |  |  |  |  | 224 ± 72 nM | > 5000 nM |  |  |  |
